This is an account of results in publication PMC2669294, “The Spliceosomal Phosphopeptide P140 Controls the Lupus Disease by Interacting with the HSC70 Protein and via a Mechanism Mediated by γδ T Cells” (PLoS ONE, 2009).

For data set [1], the system named is SLE patients. The following applies: human, in vivo; cited from earlier work.
Data set [2] has as its system MRL/lpr mice. More on the design: method as in PMID 2397613. The following applies: cited from earlier work.
The target of data set [3] is HSC70 (heat-shock cognate 71-kDa protein) (UniProt P63017). Description: biotin-peptide on cells, lysis, avidin-agarose pull-down. The following applies: reference: non-phosphorylated biotin-peptide 131-151; sites S140.
For data set [4], the target named is T1, Recombinant bovine HSC70 (Bos taurus, UniProt P19120).
T1 construct: purchased Stressgen
Description: Surface plasmon resonance, direct binding of peptides to immobilized HSC70. The following applies: SPR BIAcore 3000, HSC70 immobilized via thiol groups on CM5, HBS-EP pH 7.4, 25°C, peptide 1.56 to 12.5 µM, 1:1 Langmuir model; for kon: read-out: association rate constant (kon); for koff: read-out: dissociation rate constant (koff). The protocol: To assess P140 binding to HSC70, we investigated the binding parameters and kinetics by surface plasmon resonance. HSC70 was immobilized onto the sensor chip via one of its four thiol groups, and different concentrations of P140 and 131–151 peptides were injected in the flux followed by a dissociation phase (see the overlay surface plasmon resonance plots of the raw data in Figure 1B). […] Similar data were obtained when biotinylated P140 was on the chip and HSC70 in solution. Thus, in this in vitro system, both peptides bind with medium affinity (µM range) to HSC70. […] Of significant importance, no binding was observed between P140 and Hsp70.
BIAcore 3000 system (Biacore AB) was used to evaluate the binding of P140 peptide to HSC70 protein. Sensor chip CM5, surfactant P20, amine coupling kit containing N-hydroxysuccinimide (NHS) and N-ethyl-N′-dimethylaminopropyl carbodiimide (EDC), 2-(2-pyridinyldithio)ethaneamine (PDEA) and ethanolamine were from Biacore AB. Biosensor assays were performed with HBS-EP buffer as running buffer (10 mM HEPES, 150 mM NaCl, 3 mM EDTA, 0.005% surfactant P20, pH 7.4). The different compounds were diluted in the running buffer. The sensor chip surface was regenerated after each experiment by injecting 10 µL of 10 mM HCl. Recombinant bovine HSC70 (Stressgen) was immobilized on flow cells of a CM5 sensor chip through its thiol groups using 35 µL PDEA in 50 mM borate buffer, pH 8.3 on the NHS/EDC-activated matrix. Then, 35 µL of HSC70 (100 µg/mL in formate buffer, pH 4.3) were injected until a response of 13,000 response units (RU) corresponding to 13 ng/mm^2 of HSC70 was immobilized. Twenty µL of a 50 mM cysteine/1 M NaCl solution was used to saturate unoccupied sites on the chip. The direct binding measurement of P140 peptides to HSC70 was carried out at 25°C with a constant flow rate of 20 µL/min. P140 peptide and analogues were injected in the flux at different concentrations for 3 min, followed by a dissociation phase of 3 min. The kinetic parameters were calculated using the BIAeval 3.1 software on a personal computer. Analysis was performed using the simple 1∶1 Langmuir binding model. The specific binding profiles were obtained after subtracting the response signal from the control empty channel and from blank-buffer injection. The fitting to each model was judged by the χ square value and randomness of residue distribution compared to the theoretical model.

The nature of data set [5]: Solubility limit by dynamic light scattering. The data set is classed as physicochemical. The protocol:
The solubility of P140 and 131–151 peptides was determined at 20 and 37°C using dynamic light scattering measurements. […] The integrity of P140, as measured in saline and PBS by high-performance liquid chromatography from the area of the peak corresponding to the intact peptide, remained intact during at least 60 days at 37°C (Figure 2D).
The synthesis and purification of P140 peptide (RIHMVYSKRpSGKPRGYAFIEY; produced under Good Manufacturing Practice conditions), and of peptides 131–151 ([…]) and ScP140 (YVSRYFGpSAIRHEPKMKIYRG) were described previously, [3], [7]. For the biotin-labeled peptides, the biotin moiety was introduced at the end of peptide assembly as a Fmoc-Lys(biotin)-OH derivative. Homogeneity of peptides was checked by analytical high-performance liquid chromatography, and their identity was assessed by matrix-assisted laser desorption and ionization time-of-flight (TOF) mass spectrometry using a Protein TOF apparatus (Bruker Spectrospin). The solubility limits of both peptides in the cell culture medium RPMI 1640, PBS and distilled water were determined at 20 and 37°C using dynamic light scattering measurements.

In data set [6] the target is T2, recombinant bovine HSC70 (bovine, UniProt P19120 1-650).
T2 construct: heat-shock cognate HSC70 protein, bovine, recombinant (Stressgen); Immobilised through one of its four thiol groups in the SPR experiment; no tag is named; also called recombinant HSC70 protein; source: bought: Stressgen (recombinant)
Description: SPR; BIAcore 3000; recombinant bovine HSC70 immobilised on CM5 chip through its thiol groups (13,000 RU); peptides injected (1.56 to 12.5 µM) 3 min, dissociation 3 min; 25°C, 20 µL/min; HBS-EP pH 7.4; 1:1 Langmuir model. To be noted: both partners purified. A general note: In SPR one partner is held on a chip, and binding of the other changes the refractive index at the surface.

Non-standard residues stand in square brackets, D forms with d. Residues, ends and D or L forms follow the SMILES beside them. No end group written: not given here. pS = N[C@@H](COP(=O)(O)O)C(=O)O

T1 sequence (P19120 whole entry): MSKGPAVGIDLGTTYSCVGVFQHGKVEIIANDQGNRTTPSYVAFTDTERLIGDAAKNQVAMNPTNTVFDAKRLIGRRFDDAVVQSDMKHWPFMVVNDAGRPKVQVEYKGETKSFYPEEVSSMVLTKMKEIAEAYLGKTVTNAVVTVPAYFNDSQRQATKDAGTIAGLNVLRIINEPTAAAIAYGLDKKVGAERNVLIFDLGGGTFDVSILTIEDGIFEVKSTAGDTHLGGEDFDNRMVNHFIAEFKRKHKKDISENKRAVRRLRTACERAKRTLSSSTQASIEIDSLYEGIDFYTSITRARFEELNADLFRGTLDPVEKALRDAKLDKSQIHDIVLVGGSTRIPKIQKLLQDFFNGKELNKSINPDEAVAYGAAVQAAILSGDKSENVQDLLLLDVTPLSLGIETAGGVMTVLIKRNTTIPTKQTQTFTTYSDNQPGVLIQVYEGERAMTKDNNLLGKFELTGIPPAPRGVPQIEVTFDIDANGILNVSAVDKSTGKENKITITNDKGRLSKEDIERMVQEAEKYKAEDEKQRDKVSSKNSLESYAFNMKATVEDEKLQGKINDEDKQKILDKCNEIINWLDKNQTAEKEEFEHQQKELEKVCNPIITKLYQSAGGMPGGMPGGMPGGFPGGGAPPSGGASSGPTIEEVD
T2 sequence (P19120 whole entry): as above

On to `N=C(N)NCCCCCCC(=O)NC(O)C(=O)NCCCCNCCCN` (centres unmarked) [15-deoxyspergualin], for which, in data set [1], the “treated patients with non-severe infectious episodes” value is listed as “two of three”. Besides, the “progression of polyclonal B cell activation and lupus nephropathy” value in data set [2] is reported as “suppressed the progression”. Turning to “U1-70K small nuclear ribonucleoparticle protein 131-151 (from UniProt Q62376) biotin-P140 (pS140)”, the “binding against the reference” value in data set [3] is listed as “same”.

For the molecule `CC[C@H](C)[C@H](NC(=O)[C@H](Cc1ccccc1)NC(=O)[C@H](C)NC(=O)[C@H](Cc1ccc(O)cc1)NC(=O)CNC(=O)[C@H](CCCNC(=N)N)NC(=O)[C@@H]1CCCN1C(=O)[C@H](CCCCN)NC(=O)CNC(=O)[C@H](COP(=O)(O)O)NC(=O)[C@H](CCCNC(=N)N)NC(=O)[C@H](CCCCN)NC(=O)[C@H](CO)NC(=O)[C@H](Cc1ccc(O)cc1)NC(=O)[C@@H](NC(=O)[C@H](CCSC)NC(=O)[C@H](Cc1c[nH]cn1)NC(=O)[C@@H](NC(=O)[C@@H](N)CCCNC(=N)N)[C@@H](C)CC)C(C)C)C(=O)N[C@@H](CCC(=O)O)C(=O)N[C@@H](Cc1ccc(O)cc1)C(=O)O` [P140] (HELM PEPTIDE1{R.I.H.M.V.Y.S.K.R.[O=C([C@H](COP(=O)(O)O)N[*:1])[*:2]].G.K.P.R.G.Y.A.F.I.E.Y}$$$$V2.0), in data set [4], the kon – broadly, a measure of how fast the partners come together – was 530 M⁻¹ s⁻¹ and the koff – broadly, the rate constant with which the complex falls apart – was found to be 0.00388 s⁻¹. Moreover, the solubility result in data set [5] (in water) was “highly soluble”. On to RIHMVYSKRSGKPRGYAFIEY [131–151], for which, in data set [4], the kon was 606 M⁻¹ s⁻¹ and the koff is 0.00407 s⁻¹. For the same molecule, the solubility entry in data set [5] (200 µM-solution in water, PBS and culture medium (RPMI 1640), 20 and 37°C) is listed as “highly soluble”.

B1: P140 peptide (U1-70K snRNP protein residues 131-151, phosphorylated on Ser140) (peptide)
peptide: RIHMVYSKR[pS]GKPRGYAFIEY
notes: pS is the phosphoserine; also called phosphopeptide P140; source: synthetic peptide
Turning to B1, the Kd (usually the free concentration of one partner at which half of the binding sites on the other are occupied at equilibrium, for simple one-to-one binding) in data set [6] came out at 7.32 µM.

B2: non-phosphorylated peptide 131-151 of the U1-70K snRNP protein (peptide)
peptide: RIHMVYSKRSGKPRGYAFIEY
notes: also called non-phosphorylated analogue; source: synthetic peptide
Turning to B2, in data set [6], the Kd came to 6.72 µM.
